Source: patent US10104891B2 (priority 2014, dated 2018)

Assays:
Type in all cases: in vivo
Phytophthora infestans = assay: whole plant or invertebrate; conditions: Phytophthora infestans, in Solanum lycopersicum, 96 h, read-out: control value (Test 1)
[1] = test system: Pseudoperonospora cubensis; assay: Test 2: control effect against cucumber downy mildew; conditions: Pseudoperonospora cubensis, 120 h, control value vs untreated section
Method in brief: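 Cucumber (Sagami hanjiro) at 2-leaf stage sprayed with 4 ppm compound from 10% wettable powder in Tween20 (1/5000); inoculated next day with P. cubensis zoospores, 1.0×10^4 units/ml, 16 hr moist chamber at 22° C. Lesion area rate scored 5 days post-inoculation; control value = (1 − treated/untreated onset area rate)×100.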

Plasmopara viticola = assay: Test 3: control effect against grape downy mildew; conditions: Plasmopara viticola, 120 h, control value vs untreated section
Method in brief: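 Neomuscat grape seedlings were sprayed with compound at 4 ppm, diluted from a 10% wettable powder in Tween20 solution. One day later they were inoculated with Plasmopara viticola zoospores at 1.0×10^4 units/ml and held moist at 22° C. for 16 hr. Control value was derived from leaf lesion area at 5 days versus untreated leaves.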

Pythium graminicola = assay: Test 4: control effect against rice damping-off by the Pythium fungus (soil lavage); conditions: 1,000 ppm, 2.5 ml test suspension drenched on contaminated soil, rice (koshihikari)
Procedure: A 10% wettable powder created according to the Pharmaceutical Formulation Example 1 was diluted with a Tween20 solution prepared to a concentration of 1/5000, then the compound of formula [1] was prepared to a concentration of 4 ppm. Further, the compound of formula [1] in Test 4 was adjusted to a concentration of 1,000 ppm.
<Test 4 Test of Control Effect Against Rice Damping-Off by the Pythium Fungus (Soil Lavage)>
Distilled water was added to the flora of Pythium graminicola cultured in bentoglass seed culture and stirred with a mixer, and adjusted the contaminated soil to 5 g of bacteria against 1 kg of soil.
In a cell tray having 31×31 mm^2 per cell, 20 ml of the contaminated soil was filled in each cell, and 3 seeds of rice chaff that has been forced to sprout (Species: koshihikari) were seeded, and 5 ml of soil was added for covering, then 2.5 ml of test suspension was drenched, and the seeds were incubated in a moist chamber adjusted to 28° C. for 72 hr to induce sprouting. Then, in a low temperature room of 5° C., the onset of disease was induced for 2 days, then the disease was nurtured for 14 days in a room of 25° C.
The soil was washed, and the apoptosis strain, growth restrained strain, and a healthy strain were measured and the onset rate was calculated by the following formula. Onset rate=[Σ(onset strain number by level×onset index)/(investigated strain×3)]×100 [Onset Index]
1: Growth restrained strain
Also, the following formula was used to compute the control value from the obtained onset index. control value={1−onset area rate at the section applied the test agent/onset area rate of untreated section}×100 Computational formula of the control value: […]

## Cc1ccc(C)c(CC(=O)N2CCC(c3nc(C4OCc5cccc(OS(C)(=O)=O)c5CO4)cs3)CC2)c1 (centres unmarked) [Compound 2-1, 4-[4-(6-methylsulfonyloxy-1,5-dihydro-3H-2,4-benzodioxepin-3-yl)-2-thiazolyl]-1-[2-(2,5-dimethylphenyl)acetyl]piperidine]
Phytophthora infestans
  pest or weed control at 4 µg/mL: 100%
[1]
  pest or weed control at 4 µg/mL: 100%
Plasmopara viticola
  pest or weed control at 4 µg/mL: 100%
Pythium graminicola
  pest or weed control at 1000 ppm: ≥ 90%

## COc1ccc(F)c2c1COC(c1csc(C3CCN(C(=O)Cc4cc(C)ccc4C)CC3)n1)OC2 (centres unmarked) [Compound 2-52, 4-[4-(6-fluoro-9-methoxy-1,5-dihydro-3H-2,4-benzodioxepin-3-yl)-2-thiazolyl]-1-[2-(2,5-dimethylphenyl)acetyl]piperidine]
Phytophthora infestans
  pest or weed control at 4 µg/mL: 100%
[1]
  pest or weed control at 4 µg/mL: 100%
Plasmopara viticola
  pest or weed control at 4 µg/mL: 100%
Pythium graminicola
  pest or weed control at 1000 ppm: ≥ 90%

## Cc1ccc(C)c(NC(=O)N2CCC(c3nc(C4OCc5cccc(OS(C)(=O)=O)c5CO4)cs3)CC2)c1 (centres unmarked) [Compound 2-5, 4-[4-(6-methylsulfonyloxy-1,5-dihydro-3H-2,4-benzodioxepin-3-yl)-2-thiazolyl]-1-[N-(2,5-dimethylphenyl)carbamoyl]piperidine]
Phytophthora infestans
  pest or weed control at 4 µg/mL: 100%
[1]
  pest or weed control at 4 µg/mL: 100%
Plasmopara viticola
  pest or weed control at 4 µg/mL: 100%
Pythium graminicola
  pest or weed control at 1000 ppm: ≥ 90%

## O=C(Cc1cc(Cl)ccc1Cl)N1CCC(c2nc(C3OCc4cccc(OC(F)F)c4CO3)cs2)CC1 (centres unmarked) [Compound 2-48, 4-[4-[6-(difluoromethoxy)-1,5-dihydro-3H-2,4-benzodioxepin-3-yl]-2-thiazolyl]-1-[2-(2,5-dichlorophenyl)acetyl]piperidine]
Phytophthora infestans
  pest or weed control at 4 µg/mL: 100%
[1]
  pest or weed control at 4 µg/mL: 100%
Plasmopara viticola
  pest or weed control at 4 µg/mL: 100%
Pythium graminicola
  pest or weed control at 1000 ppm: ≥ 90%

## COc1ccc(Br)c2c1COC(c1csc(C3CCN(C(=O)Cn4nc(C(F)F)cc4C(F)F)CC3)n1)OC2 (centres unmarked) [Compound 1-57, 4-[4-(6-bromo-9-methoxy-1,5-dihydro-3H-2,4-benzodioxepin-3-yl)-2-thiazolyl]-1-[2-[3,5-bis(difluoromethyl)-1H-pyrazole-1-yl]acetyl]piperidine]
Phytophthora infestans
  pest or weed control at 4 µg/mL: 100%
[1]
  pest or weed control at 4 µg/mL: 100%
Plasmopara viticola
  pest or weed control at 4 µg/mL: 100%
Pythium graminicola
  pest or weed control at 1000 ppm: ≥ 90%

## Cc1cc(C(F)(F)F)nn1CC(=O)N1CCC(c2nc(C3OCc4cccc(Cl)c4CO3)cs2)CC1 (centres unmarked) [Compound 1-23, 4-[4-(6-chloro-1,5-dihydro-3H-2,4-benzodioxepin-3-yl)-2-thiazolyl]-1-[2-[5-methyl-3-(trifluoromethyl)-1H-pyrazole-1-yl]acetyl]piperidine]
Phytophthora infestans
  pest or weed control at 4 µg/mL: 100%
[1]
  pest or weed control at 4 µg/mL: 100%
Plasmopara viticola
  pest or weed control at 4 µg/mL: 100%
Pythium graminicola
  pest or weed control at 1000 ppm: ≥ 90%

## Cc1cc(C(F)(F)F)nn1CC(=O)N1CCC(c2nc(C3OCc4cccc(CC#N)c4CO3)cs2)CC1 (centres unmarked) [Compound 1-72, 4-[4-[6-(cyanomethyl)-1,5-dihydro-3H-2,4-benzodioxepin-3-yl]-2-thiazolyl]-1-[2-[5-methyl-3-(trifluoromethyl)-1H-pyrazole-1-yl]acetyl]piperidine]
Phytophthora infestans
  pest or weed control at 4 µg/mL: 100%
[1]
  pest or weed control at 4 µg/mL: 100%
Plasmopara viticola
  pest or weed control at 4 µg/mL: 100%
Pythium graminicola
  pest or weed control at 1000 ppm: ≥ 90%

## CC(=O)Oc1cccc2c1COC(c1csc(C3CCN(C(=O)Cn4nc(C(F)(F)F)cc4C)CC3)n1)OC2 (centres unmarked) [Compound 1-144, 4-[4-(6-acetoxy-1,5-dihydro-3H-2,4-benzodioxepin-3-yl)-2-thiazolyl]-1-[2-[5-methyl-3-(trifluoromethyl)-1H-pyrazole-1-yl]acetyl]piperidine]
Phytophthora infestans
  pest or weed control at 4 µg/mL: 100%
[1]
  pest or weed control at 4 µg/mL: 100%
Plasmopara viticola
  pest or weed control at 4 µg/mL: 100%
Pythium graminicola
  pest or weed control at 1000 ppm: ≥ 90%
